Tested on: 996289-038-R-J1-PDC complex spheroid viability
Assay: Anticancer human tumor 996289-038-R-J1-PDC patient-derived colon adenocarcinoma cell line growth inhibition [CLK]
Conditions: for IC50: curve of first compound; for viability, T/C: stronger effect = lower value
In short: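 Patient-derived tumor cells grown as complex spheroids with HUVEC endothelial cells and mesenchymal stem cells, treated with drug combinations. Concentrations descend in half-log steps from near clinical Cmax, or from 10 microM if Cmax unknown.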

[1] = second compound 0.0316 µM, first compound 0.0316 µM
[2] = second compound 0.0316 µM, first compound 0.1 µM
[3] = second compound 0.0316 µM, first compound 0.316 µM
[4] = second compound 0.0316 µM, first compound 1 µM
[5] = second compound 0.0316 µM, first compound 3.16 µM
[6] = second compound 0.0316 µM, first compound 10 µM
[7] = second compound 0.1 µM, first compound 0.0316 µM
[8] = second compound 0.1 µM, first compound 0.1 µM
[9] = second compound 0.1 µM, first compound 0.316 µM
[10] = second compound 0.1 µM, first compound 1 µM
[11] = second compound 0.1 µM, first compound 3.16 µM
[12] = second compound 0.1 µM, first compound 10 µM
[13] = second compound 0.316 µM, first compound 0.0316 µM
[14] = second compound 0.316 µM, first compound 0.1 µM
[15] = second compound 0.316 µM, first compound 0.316 µM
[16] = second compound 0.316 µM, first compound 1 µM
[17] = second compound 0.316 µM, first compound 3.16 µM
[18] = second compound 0.316 µM, first compound 10 µM
[19] = second compound 1 µM, first compound 0.0316 µM
[20] = second compound 1 µM, first compound 0.1 µM
[21] = second compound 1 µM, first compound 0.316 µM
[22] = second compound 1 µM, first compound 1 µM
[23] = second compound 1 µM, first compound 3.16 µM
[24] = second compound 1 µM, first compound 10 µM
[25] = second compound 3.16 µM, first compound 0.0316 µM
[26] = second compound 3.16 µM, first compound 0.1 µM
[27] = second compound 3.16 µM, first compound 0.316 µM
[28] = second compound 3.16 µM, first compound 1 µM
[29] = second compound 3.16 µM, first compound 3.16 µM
[30] = second compound 3.16 µM, first compound 10 µM
[31] = second compound 10 µM, first compound 0.0316 µM
[32] = second compound 10 µM, first compound 0.1 µM
[33] = second compound 10 µM, first compound 0.316 µM
[34] = second compound 10 µM, first compound 1 µM
[35] = second compound 10 µM, first compound 3.16 µM
[36] = second compound 10 µM, first compound 10 µM
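Note: spheroids exposed to the agents for 7 days before readout.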

Compound: Nc1ccn(C2OC(CO)C(O)C2(F)F)c(=O)n1 (centres undefined) + CNC(=O)c1ccc(Nc2nc(OC3CCCC3)c3c(-c4ccc5nc(C)oc5c4)c[nH]c3n2)c(OC)c1
- IC50 (second compound 0.0316 µM): > 10 µM
- IC50 (second compound 0.1 µM): > 10 µM
- IC50 (second compound 0.316 µM): > 10 µM
- IC50 (second compound 1 µM): 1.23 µM
- IC50 (second compound 3.16 µM): 0.674 µM
- IC50 (second compound 10 µM): 0.639 µM
- viability, T/C [1]: 93.1%
- viability, T/C [2]: 82.7%
- viability, T/C [3]: 67.1%
- viability, T/C [4]: 70%
- viability, T/C [5]: 65.1%
- viability, T/C [6]: 56.4%
- viability, T/C [7]: 108%
- viability, T/C [8]: 85.3%
- viability, T/C [9]: 67.9%
- viability, T/C [10]: 68%
- viability, T/C [11]: 66.7%
- viability, T/C [12]: 54.9%
- viability, T/C [13]: 79.8%
- viability, T/C [14]: 70.5%
- viability, T/C [15]: 65.4%
- viability, T/C [16]: 56.1%
- viability, T/C [17]: 55.3%
- viability, T/C [18]: 52.2%
- viability, T/C [19]: 68.8%
- viability, T/C [20]: 63.4%
- viability, T/C [21]: 54.6%
- viability, T/C [22]: 50%
- viability, T/C [23]: 48.9%
- viability, T/C [24]: 41.4%
- viability, T/C [25]: 65.3%
- viability, T/C [26]: 54.2%
- viability, T/C [27]: 52.6%
- viability, T/C [28]: 49.3%
- viability, T/C [29]: 47.2%
- viability, T/C [30]: 36.9%
- viability, T/C [31]: 61.5%
- viability, T/C [32]: 57.6%
- viability, T/C [33]: 48.4%
- viability, T/C [34]: 49.4%
- viability, T/C [35]: 46.9%
- viability, T/C [36]: 35.2%

Compound: O=C(c1cc(Cc2n[nH]c(=O)c3ccccc23)ccc1F)N1CCN(C(=O)C2CC2)CC1 + CNC(=O)c1ccc(Nc2nc(OC3CCCC3)c3c(-c4ccc5nc(C)oc5c4)c[nH]c3n2)c(OC)c1
- IC50 (second compound 0.0316 µM): > 10 µM
- IC50 (second compound 0.1 µM): > 10 µM
- IC50 (second compound 0.316 µM): > 10 µM
- IC50 (second compound 1 µM): > 10 µM
- IC50 (second compound 3.16 µM): > 10 µM
- IC50 (second compound 10 µM): > 10 µM
- viability, T/C [1]: 126%
- viability, T/C [2]: 113%
- viability, T/C [3]: 113%
- viability, T/C [4]: 124%
- viability, T/C [5]: 120%
- viability, T/C [6]: 103%
- viability, T/C [7]: 122%
- viability, T/C [8]: 121%
- viability, T/C [9]: 116%
- viability, T/C [10]: 117%
- viability, T/C [11]: 114%
- viability, T/C [12]: 115%
- viability, T/C [13]: 78.9%
- viability, T/C [14]: 74.4%
- viability, T/C [15]: 76.3%
- viability, T/C [16]: 75.4%
- viability, T/C [17]: 85.3%
- viability, T/C [18]: 71.3%
- viability, T/C [19]: 70.8%
- viability, T/C [20]: 65.8%
- viability, T/C [21]: 64%
- viability, T/C [22]: 60.6%
- viability, T/C [23]: 69.3%
- viability, T/C [24]: 61.3%
- viability, T/C [25]: 62.6%
- viability, T/C [26]: 57.5%
- viability, T/C [27]: 58.1%
- viability, T/C [28]: 60.2%
- viability, T/C [29]: 64%
- viability, T/C [30]: 58.5%
- viability, T/C [31]: 62.6%
- viability, T/C [32]: 59.4%
- viability, T/C [33]: 61%
- viability, T/C [34]: 58.3%
- viability, T/C [35]: 61.1%
- viability, T/C [36]: 52.1%
